Consider two compounds from US6083964A, “Optical resolution of racemic aminoalkylpyridine anticonvulsants and (+) aminoalkylpyridine enantiomers as highly potent orally effective anticonvulsant drugs and excitatory amino acid antagonists” (K and K Biosciences, Inc., priority 1999, dated 2000).

Series [1] has as its system maximal electroshock seizure (MES) in mice. Description: Maximal electroshock seizure (MES) test, mice, i.p. In kind it is in vivo, mouse (male Carworth Farms #1). The settings on record: for P.I. (protective index, TD50/ED50): MES; for ED50: MES test. From the text:
The (+) AAP enantiomers obtained by optical resolution of racemic AAPs and the resulting highly orally effective anticonvulsant compositions of this invention are useful in the treatment of convulsive disorders. […] A series of (+) AAP enantiomers and (-) AAP enantiomers of this invention has been evaluated for anticonvulsant activity by the intraperitoneal (i.p.) and by the oral (p.o.) route using two standard seizure models in the mouse and in the rat, the maximal electroshock seizure (MES) test and the subcutaneous pentylenetetrazol (Metrazole) seizure threshold (scMet) test. […] The following Table 2 presents the results of these anticonvulsant tests with respect to several (+) and (-) AAP enantiomeric compounds derived from optical resolution of racemic AAPs of the present invention. This Table 2 identifies the specific compounds tested by their chemical name and provides the test model, the route of administration, the animal species used, and the anticonvulsant activity and toxicity in terms of ED50 and TD50 values, (the median effective and toxic dose respectively), when intraperitoneally administered to mice, and when orally administered to rats. In mice, i.p.: All compounds are emulsified in 0.5% methylcellulose. The solvent has been tested for anticonvulsant and toxic effects and found to introduce no significant bias into the testing of anticonvulsant activity. The compounds are administered intraperitoneally in a volume of 0.01 ml/gm to male Carworth Farms #1 mice weighing about 20 gm. All compounds are tested at least at three dose levels (30, 100 and 300 mg/kg) at 30 minutes and 4 hours after their administration. The Maximal Electroshock Seizure Test (MES): Maximal electroshock seizures are elicited with a 60 Hz alternating current of 50 mA intensity in mice and about 150 mA intensity in rats (5-7 times that necessary to elicit minimal electroshock seizures), delivered for 0.2 sec via corneal electrodes. A drop of 0.9% saline is instilled in the eye prior to application of the electrodes in order to […]. Abolition of the hind limb tonic extension component of the seizure is defined as protection and results are expressed as number of animals protected/number of animals tested. The Subcutaneous Pentylenetetrazol (Metrazole) Seizure Threshold Test (scMet): A 0.5% solution of 85 mg/kg of pentylenetetrazol is administered subcutaneously in the posterior midline 30 minutes or 4 hours after drug administration to the animal. […] Anticonvulsant Quantification in Mice i.p.: The ED50 values are determined in the MES, scMet and rotorod ataxia test. To determine the ED50 values, five logarithmically spaced doses of the test compound are administered to animals (male Carworth Farms #1 mice) in groups of eight, to cover 0-100% protection, and the dose required to protect 50% of the animals (ED50) together with its 95% confidence limits, is determined graphically.

For series [2], the system named is pentylenetetrazol (Metrazole) seizure threshold in mice. Description: Timed intravenous Metrazol (PTZ) seizure threshold test in mice, i.p. In kind it is in vivo, mouse. The following applies: for time to twitch: control 33.03; for PTZ dose for the clonus component: control 37.60; for time to clonus: control 39.71; for amount of PTZ required to produce the twitch and clonus and time to twitch and time to clonus (in words): mice. From the text: A compound that is active in the MES test and prevents seizure spread, can lower seizure threshold at the same time. Such a compound would have proconvulsant activity while at the same time prevent generalized tonic seizures. […] The timed intravenous pentylenetetrazol (Metrazol) seizure threshold test in mice identifies those MES compounds with proconvulsant potential.
Mice were given the (+) and (-) enantiomers, compounds 1 and 2 in Table 1, intraperitoneally at the ED50 and TD50. At the time of maximal MES activity, an intravenous infusion of 0.5% heparinized solution of pentylenetetrazol (PT2) (0.34 ml/min) was started. The time to the appearance of the first myoclonic jerk (twitch) and the subsequent sustained clonic seizure (clonus) were the measured endpoints. Results were obtained for groups of ten treated and ten saline control mice and converted to the dose in mg/kg of PTZ necessary to produce the two endpoints.
Experiments were performed using three doses of 0, 36 and 149 mg/kg on each of 10 animals per dosage group. The time to "twitch" and the time to "clonus", the two components of the seizure elicited by the infusion of metrazol, were observed.

Another series relates to hippocampal kindled rats. As to the kind of experiment: Toxicity in hippocampal kindled rats, i.p. In kind it is in vivo. The settings on record: 100 mg/kg i.p., 45 min. How it is done:
The (+) AAP enantiomer, compound 1 in Table 1, was tested in the hippocampal kindled rat, by the i.p. route. […]

The nature of series [3]: Neurotoxicity, rotorod ataxia test, mice, i.p. Also on record: species or system mouse (male Carworth Farms #1). The following applies: mouse, in vivo, ip, TD50. How it is done: (§1) Neurotoxicity is determined by the rotorod ataxia test in mice and by the positional sense test and gait and stance test in the rat. The following Table 2 presents the results of these anticonvulsant tests with respect to several (+) and (-) AAP enantiomeric compounds derived from optical resolution of racemic AAPs of the present invention. This Table 2 identifies the specific compounds tested by their chemical name and provides the test model, the route of administration, the animal species used, and the anticonvulsant activity and toxicity in terms of ED50 and TD50 values, (the median effective and toxic dose respectively), when intraperitoneally administered to mice, and when orally administered to rats. In mice, i.p.: All compounds are emulsified in 0.5% methylcellulose. The solvent has been tested for anticonvulsant and toxic effects and found to introduce no significant bias into the testing of anticonvulsant activity. The compounds are administered intraperitoneally in a volume of 0.01 ml/gm to male Carworth Farms #1 mice weighing about 20 gm. All compounds are tested at least at three dose levels (30, 100 and 300 mg/kg) at 30 minutes and 4 hours after their administration. Neurotoxicity is evaluated in mice by the rotorod ataxia test. The animal is placed on a wooden rod of 1 and 1/8 diameter rotating at 6 rpm. Normal mice can remain on a rod rotating at this speed indefinitely. […] Anticonvulsant Quantification in Mice i.p.: The ED50 values are determined in the MES, scMet and rotorod ataxia test. To determine the ED50 values, five logarithmically spaced doses of the test compound are administered to animals (male Carworth Farms #1 mice) in groups of eight, to cover 0-100% protection, and the dose required to protect 50% of the animals (ED50) together with its 95% confidence limits, is determined graphically.
A general note: Falling from the rotarod earlier than controls is read as motor impairment.

Series [4] deals with neurotoxicity (rotorod ataxia) in mice. Description: Neurotoxicity, rotorod ataxia test, mice, i.p. Also on record: species or system mouse (male Carworth Farms #1). The following applies: mouse, in vivo, ip. How it is done: as §1

Where two headings read alike, the source gives them in different places.

As to `CC(Nc1ccc(Cl)cc1)c1ccncc1` (single isomer, unassigned; (+)) [Compound 1, (+) N-(4-Chlorophenyl)-1-(4-pyridyl)ethylamine], the “P.I. (protective index, TD50/ED50)” value in series [1] (listed as (1) (+) Enantiomer) was 4.2. Also, the ED50 in series [1] (Mus musculus, ip, read-out: ED50) was determined as 35.9 mg/kg. Moreover, in series [2] (36 mg/kg dosage group), the time to twitch was found to be 34.91 s, the “PTZ dose for the clonus component” value is recorded as 46.84 mg/kg and the time to clonus came to 48.56 s. Further, the “PTZ dose for the twitch component” value in series [2] (149 mg/kg dosage group, control 31.23) came out at 33.31 mg/kg. Besides, in series [2] (149 mg/kg dosage group), the time to twitch is 35.01 s, the “PTZ dose for the clonus component” value turned out to be 74.13 mg/kg and the time to clonus was 77.56 s. The “amount of PTZ required to produce the twitch and clonus and time to twitch and time to clonus (in words)” value in series [2] is “significantly raised”. Besides, the “toxic (number of animals)” value in the series with hippocampal kindled rats is recorded as 2/7. The TD50 in series [3] is 149 mg/kg.
Take `CC(Nc1ccc(Cl)cc1)c1ccncc1` (single isomer, unassigned; (-)) [Compound 2, (-) N-(4-Chlorophenyl)-1-(4-pyridyl)ethylamine]: in series [1] (listed as (1) (-) Enantiomer), the ED50 worked out at 60.3 mg/kg and the “P.I. (protective index, TD50/ED50)” value worked out at 3.6. Also, the “amount of PTZ required to produce the twitch and clonus and time to twitch and time to clonus (in words)” value in series [2] is reported as “only in modest amounts”. This compound also gave a TD50 in series [4] of 219.4 mg/kg.

The ED50 is the midpoint of the dose-response relation. Usually TD50 stands for the 50% point of the dose-response relation for the toxic effect studied.
